Experimental data: patent publication US7759510B2, “Platinum complexes and methods of use” (University of South Florida, priority 2003, dated 2010)
Where two headings read alike, the source gives them in different places.

Columns and labels:
Stat3 = molecular target: T1, Stat3 (Mus musculus, UniProt P42227); test: EMSA of nuclear extracts, Stat3 DNA-binding activity to hSIE probe; type: biochemical; settings: in vitro
T1 construct: Nuclear extracts were prepared from NIH3T3/hEGFR cell that overexpress human epidermal growth factor (EGF) receptor and stimulated with EGF; endogenous in cells; host or cells: NIH3T3/hEGFR fibroblasts, EGF-stimulated (6 ng/ml, 15 min), nuclear extract
Experimental: Nuclear Extract Preparation and Analysis by EMSA of HK-Designated Platinum Complexes.
Nuclear extracts were prepared from NIH3T3/hEGFR cell that overexpress human epidermal growth factor (EGF) receptor and stimulated with EGF (6 ng/ml) for 15 min. Nuclear extracts were pre-incubated with compounds for 30 min at room temperature prior to incubation with radiolabeled probe. The ^32P-labeled oligonucleotide probe used is hSIE (high affinity sis-inducible element, m67 variant, 5′-[…]-3′) (SEQ ID NO:1) that binds both Stat1 and Stat3.
Other platinum (IV) complexes were evaluated for inhibitory activity against STAT DNA-binding in vitro.

A549 cells = test: MTT assay, percent survival of A549 cells; type: cell-based; settings: A549; for IC50: Table 2, read-out: Calculated IC 50 (uM concentration)
Experimental: 1. Prepare a suspension of A549 cells at 2×10^5 cells per mL in supplemented DMEM/F12 growth medium.
2. Plate 2×10^4 cells per well in a 96 well cell culture plate by adding 100 μL of stock suspension to each well.
3. For each platinum compound (already in solution), prepare a readily usable stock solution in DMEM/F12 medium.
4. For each compound generate triplicate trials of 0, 10, 20, 30, 40, 50, 60, and 70 μM concentration. This is achieved in situ by adding appropriate volumes of stock solution to each well along with the volume of untreated medium necessary to generate the desired concentration in a final volume of 200 μL.
5. Gently agitate plates to mix contents. Incubate at 37° C., 7% CO2 for 45 hours.
6. Add 20 μL of 5 mg/mL MTT solution (in PBS) to each well.
7. Gently agitate plates to mix contents and incubate an additional 3 hours to allow product development.
8. Remove plates from incubator and agitate to cause settling of formazan product.
9. Aspirate out liquid contents of each well using needle and syringe and discard.
10. Add 200 μL DMSO to each well to dissolve formazan product.
11. Agitate plates until all of the formazan product is in solution and no purple crystals remain on the bottom surface of the wells.
12. Read the absorbance of each well at […] using Varian software for Cary 50 UV-vis Spectrophotometer with fiber optic probe accessory.
(§1) MTT assays are used for the quantitative determination of cellular proliferation and activation and for the quantitation of in vitro tumor cell sensitivity to anti-cancer compounds. The assay is based on the cleavage of the yellow tetrazolium salt MTT into purple colored formazan by metabolically active cells. Solubilized formazan product can be photometrically quantitated using an ELISA plate reader. A decrease in the number of living cells results in a decrease in total metabolic activity which leads to a decrease in color formation. Platinum complexes of the present invention were tested in MTT assays using A549 cells to determine anti-cancer cell activity. […] FIGS. 1, 2, and 4 show percent survival versus platinum complex concentration in graphical form.
as §1, with “FIGS. 8, 9,” for “FIGS. 1, 2,”, “and 11” for “and 4”

[1] = extrapolated from incomplete data (10-40 uM; CPA-31 10-30 μM), outside the measured range
[2] = linear trend from percent survival vs. concentration data of Table 1

T1 sequence (P42227 whole entry): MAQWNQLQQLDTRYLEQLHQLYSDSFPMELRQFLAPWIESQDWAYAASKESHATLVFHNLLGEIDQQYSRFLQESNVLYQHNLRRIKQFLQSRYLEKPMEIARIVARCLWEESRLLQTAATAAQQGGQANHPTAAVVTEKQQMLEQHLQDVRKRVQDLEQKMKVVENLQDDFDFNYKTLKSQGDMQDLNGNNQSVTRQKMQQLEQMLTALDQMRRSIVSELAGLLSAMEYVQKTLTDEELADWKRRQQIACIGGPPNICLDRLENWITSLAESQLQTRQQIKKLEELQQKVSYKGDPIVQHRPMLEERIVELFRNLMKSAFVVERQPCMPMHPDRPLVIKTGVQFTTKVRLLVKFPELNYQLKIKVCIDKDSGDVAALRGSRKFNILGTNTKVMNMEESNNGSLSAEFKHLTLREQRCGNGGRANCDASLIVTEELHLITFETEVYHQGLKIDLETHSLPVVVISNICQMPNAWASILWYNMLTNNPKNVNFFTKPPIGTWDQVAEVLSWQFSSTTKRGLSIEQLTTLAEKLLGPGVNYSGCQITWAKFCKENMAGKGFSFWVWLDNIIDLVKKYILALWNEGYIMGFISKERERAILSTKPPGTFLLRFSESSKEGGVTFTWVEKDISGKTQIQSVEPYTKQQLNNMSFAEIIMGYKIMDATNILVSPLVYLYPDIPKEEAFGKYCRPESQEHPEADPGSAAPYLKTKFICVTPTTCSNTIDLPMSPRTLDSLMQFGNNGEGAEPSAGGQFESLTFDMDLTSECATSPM

SMILES	Disruption of Stat3 activity / ability to bind its consensus binding sequence (Stat3)	Average Absorbance (A549 cells; Table 1, 10 μM)	Percent Survival (A549 cells; Table 1, 10 μM) [%]	Average Absorbance (A549 cells; Table 1, 20 μM)	Percent Survival (A549 cells; Table 1, 20 μM) [%]	Average Absorbance (A549 cells; Table 1, 30 μM)	Percent Survival (A549 cells; Table 1, 30 μM) [%]	Average Absorbance (A549 cells; Table 1, 40 μM)	Percent Survival (A549 cells; Table 1, 40 μM) [%]	Average Absorbance (A549 cells; Table 3, 10 μM)	Percent Survival (A549 cells; Table 3, 10 μM) [%]	Average Absorbance (A549 cells; Table 3, 20 μM)	Percent Survival (A549 cells; Table 3, 20 μM) [%]	Average Absorbance (A549 cells; Table 3, 30 μM)	Percent Survival (A549 cells; Table 3, 30 μM) [%]	Average Absorbance (A549 cells; Table 3, 40 μM)	Percent Survival (A549 cells; Table 3, 40 μM) [%]	Average Absorbance (A549 cells; Table 3, 50 μM)	Percent Survival (A549 cells; Table 3, 50 μM) [%]	Average Absorbance (A549 cells; Table 3, 60 μM)	further results
[NH2][Pt]([NH2])([Cl])([Cl])([Br])[N+](=O)[O-] [CPA-10]	strongly disrupt Stat3 activity	–	–	–	–	–	–	–	–	–	–	–	–	–	–	–	–	–	–	–	–
[NH2][Pt]([NH2])([Cl])([Cl])[N+](=O)[O-].c1ccc(-c2oc(-c3ccccc3)c3ccccc23)cc1 [CPA-41]	strongly disrupt Stat3 activity	2.3706	100.4024	2.3827	100.9148	2.1124	89.4668	0.8648	36.6270	2.4500	100.2906	2.3805	97.4457	1.4686	60.1171	0.4210	17.2336	0.3647	14.9290	0.5549	IC50 (A549 cells; [1]): 40.7 µM; Percent Survival (A549 cells; Table 3, 60 μM): 22.7148%; Average Absorbance (A549 cells; Table 3, 70 μM): 0.5445; Percent Survival (A549 cells; Table 3, 70 μM): 22.2891%
CCN(CC)c1ccc2c(-c3ccccc3C(=O)O)c3ccc(=[N+](CC)CC)cc-3[o+]([Pt]([NH2])([NH2])([Cl])([Cl])[N+](=O)[O-])c2c1.[Cl-] [CPA-46]	strongly disrupt Stat3 activity	2.4032	101.7831	2.2978	97.3190	2.2671	96.0188	1.8618	78.8531	2.5773	105.5017	2.4118	98.7269	1.9637	80.3840	1.2044	49.3021	0.6282	25.7153	0.6446	Average Absorbance (A549 cells; Table 1, 50 μM): 1.0285; Percent Survival (A549 cells; Table 1, 50 μM): 43.5602%; Average Absorbance (A549 cells; Table 1, 60 μM): 0.7041; Percent Survival (A549 cells; Table 1, 60 μM): 29.8208%; IC50 (A549 cells; [2]): 52.9 µM; Percent Survival (A549 cells; Table 3, 60 μM): 26.3867%; Average Absorbance (A549 cells; Table 3, 70 μM): 0.6165; Percent Survival (A549 cells; Table 3, 70 μM): 25.2364%
N[N](c1cc([N+](=O)[O-])cc([N+](=O)[O-])c1)[Pt]([NH2])([NH2])([Cl])([Cl])[N+](=O)[O-] [CPA-43]	strongly disrupt Stat3 activity	2.4150	102.2828	1.8554	78.5820	2.1451	90.8517	1.3030	55.1861	2.5840	105.7759	2.2922	93.8311	1.4833	60.7188	0.6479	26.5218	0.4641	18.9979	0.6504	IC50 (A549 cells; [1]): 49.6 µM; Percent Survival (A549 cells; Table 3, 60 μM): 26.6241%; Average Absorbance (A549 cells; Table 3, 70 μM): 0.5059; Percent Survival (A549 cells; Table 3, 70 μM): 20.7090%
Nc1cccc2c(=O)[nH][n]([Pt]([NH2])([NH2])([Cl])([Cl])[N+](=O)[O-])c(=O)c12 [CPA-51]	strongly disrupt Stat3 activity	2.4925	105.5652	2.5760	109.1017	2.3214	98.3186	2.0616	87.3152	2.4744	101.2895	2.4868	101.7970	2.0998	85.9552	1.4758	60.4118	0.9352	38.2824	0.7084	Average Absorbance (A549 cells; Table 1, 50 μM): 1.3869; Percent Survival (A549 cells; Table 1, 50 μM): 58.7396%; Average Absorbance (A549 cells; Table 1, 60 μM): 0.8807; Percent Survival (A549 cells; Table 1, 60 μM): 37.3004%; Average Absorbance (A549 cells; Table 1, 70 μM): 1.0819; Percent Survival (A549 cells; Table 1, 70 μM): 45.8219%; IC50 (A549 cells; [2]): 61.2 µM; Percent Survival (A549 cells; Table 3, 60 μM): 28.9983%; Average Absorbance (A549 cells; Table 3, 70 μM): 0.7058; Percent Survival (A549 cells; Table 3, 70 μM): 28.8919%
O=C1C(Br)=CC2=C(c3ccccc3C(=O)[O-])C3C=C(Br)C([O-])=C(Br)C3OC2=C1Br.[NH2][Pt]([NH2])([Cl])([Cl])[N+](=O)[O-] (stereo not drawn) [CPA-30]	strongly disrupt Stat3 activity	–	–	–	–	–	–	–	–	–	–	–	–	–	–	–	–	–	–	–	–
